Test results: PubChem BioAssay (NCI)
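Cultured in 96-well plates, cells were exposed to test compound for 48 hours across five concentrations. The concentration for 50% growth inhibition is given as GI50. TGI: total growth inhibition.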 Where a SMILES comes first, the peptide text is derived from it. [ ]: non-standard residue; d: D form. The star is where a group is joined. Phe(4-NO2) = N[CH](Cc1ccc([N+](=O)[O-])cc1)C(=O)O; Boc = CC(C)(C)OC(=O)*

Key:
Test in all cases: inhibition of tumour cell growth, NCI panel, 48 h
A549 NSCLC = system: A549 NSCLC
CCRF-CEM leukemia = system: CCRF-CEM leukemia
DU-145 prostate = system: DU-145 prostate
KM12 colon = system: KM12 colon
MDA-MB-231 breast = system: MDA-MB-231 breast
MDA-N = system: MDA-N
NCI-H23 lung = system: NCI-H23 lung
OVCAR-4 ovarian = system: OVCAR-4 ovarian
OVCAR-8 ovarian = system: OVCAR-8 ovarian
SK-MEL-5 melanoma = system: SK-MEL-5 melanoma

Structure (SMILES)	TGI (A549 NSCLC)	TGI (CCRF-CEM leukemia)	TGI (DU-145 prostate)	TGI (KM12 colon)	TGI (MDA-MB-231 breast)	TGI (MDA-N)	TGI (NCI-H23 lung)	TGI (OVCAR-4 ovarian)	TGI (OVCAR-8 ovarian)	TGI (SK-MEL-5 melanoma)	GI50 (A549 NSCLC)	GI50 (CCRF-CEM leukemia)	GI50 (DU-145 prostate)	GI50 (KM12 colon)	GI50 (MDA-MB-231 breast)	GI50 (NCI-H23 lung)	GI50 (OVCAR-4 ovarian)	GI50 (OVCAR-8 ovarian)	GI50 (SK-MEL-5 melanoma)
c1ccc2c(Nc3ncco3)cccc2c1	> 10 µM	> 10 µM	> 10 µM	> 10 µM	> 10 µM	> 10 µM	> 10 µM	> 10 µM	> 10 µM	> 10 µM									
C/C(=C\Cc1ccc(F)cc1)CCCCCC/C(C)=C/Cc1ccc(F)cc1	31.7 µM	42.6 µM	27.8 µM	5.61 µM	37.9 µM	34.2 µM	24 µM	34.2 µM	39.6 µM	27.8 µM									
CC(=O)OCC1OC(SC2=NC(=O)CS2)C(OC(C)=O)C(OC(C)=O)C1OC(C)=O (stereo not given)	> 100 µM	> 100 µM	> 100 µM	> 100 µM	> 100 µM	> 100 µM	> 100 µM		> 100 µM	> 100 µM									
Cc1ccc(-n2nncc2[Si](C)(C)C)s1	> 100 µM	56.7 µM	> 100 µM		> 100 µM	> 100 µM	> 100 µM	> 100 µM	> 100 µM	> 100 µM									
CCC1=C(C[C@H]2NCCc3cc(OC)c(OC)cc32)C[C@H]2c3cc(OC)c(OC)cc3CCN2C1							0.0532 µM	0.0717 µM	0.137 µM	0.0551 µM									
COc1cc2nc(N3CCC[C@H](NC4=CC(=O)c5ccccc5C4=O)C3)nc(N)c2cc1OC	4 µM	5.45 µM	3.58 µM	3.22 µM	3.3 µM		4.13 µM	3.19 µM	4.28 µM	3.26 µM	2.23 µM	1.79 µM	1.96 µM	1.77 µM	1.63 µM	1.99 µM	1.61 µM	2.06 µM	1.73 µM
Cc1ccc(N2C(=O)C3CSCN3C2=O)cc1 (stereo not given)	> 100 µM	> 100 µM		> 100 µM			> 100 µM	> 100 µM	> 100 µM	> 100 µM									
CN(C)C=N[C@@H](C(=O)O)c1ccccc1	> 100 µM	> 100 µM	> 100 µM		> 100 µM	> 100 µM	> 100 µM	> 100 µM	> 100 µM	> 100 µM									
CC(=O)CC(=O)N1CCSC1=S	> 10 µM	> 10 µM	> 10 µM	> 10 µM	> 10 µM	> 10 µM	> 10 µM		> 10 µM	> 10 µM									
CC(C)[C@H](C)/C=C/[C@@H](C)C1CC[C@H]2[C@@]34C=C[C@]5(C[C@@H](O)CC[C@]5(C)[C@H]3CC[C@]12C)OO4 (stereo not given in full)	> 100 µM		56 µM	> 100 µM	84.9 µM	> 100 µM	92.5 µM	> 100 µM	66.4 µM	62.2 µM									
COC(=O)c1onc(C2OC(C)(C)OC2C(O)COC(c2ccccc2)(c2ccccc2)c2ccccc2)c1C(=O)OC (stereo not given)	> 100 µM	> 100 µM	> 100 µM	> 100 µM	> 100 µM	> 100 µM	> 100 µM	> 100 µM	> 100 µM	> 100 µM									
COC(=O)c1c2c(cc3c1CC1(Cc4cc5c(c(C)c4C1)CCC5)C3)CCC2 (stereo not given)	> 100 µM	> 100 µM	> 100 µM		> 100 µM	> 100 µM	> 100 µM	> 100 µM	> 100 µM	> 100 µM									
Cc1cc(S(=O)(=O)Nc2nc3cscc3c(=O)n2N)c(S)cc1Cl	> 100 µM	> 100 µM	> 100 µM	> 100 µM	> 100 µM	> 100 µM	> 100 µM	> 100 µM	> 100 µM	> 100 µM									
COc1c(C)c(C/C=C(\C)CCCC(C)CCCC(C)CCCC(C)C)c(OC)c2ccccc12 (stereo not given)	> 100 µM	> 100 µM	> 100 µM	> 100 µM	> 100 µM	> 100 µM	> 100 µM	> 100 µM	> 100 µM	> 100 µM									
CC(C)(C)OC(=O)C(C#N)C(=O)c1ccc(C(=O)O)[nH]1 (stereo not given)	> 100 µM	> 100 µM	> 100 µM	> 100 µM	> 100 µM	> 100 µM	> 100 µM	52.9 µM	> 100 µM	> 100 µM									
c1ccc2c[n+](CCCC[n+]3ccc4ccccc4c3)ccc2c1	> 100 µM	> 100 µM	> 100 µM	> 100 µM	> 100 µM	> 100 µM	> 100 µM	> 100 µM	> 100 µM	> 100 µM									
CCOC(=O)CCC(NC(=O)C(Cc1ccc([N+](=O)[O-])cc1)NC(=O)OC(C)(C)C)C(=O)NC(CCC(=O)OCC)C(=O)OCC (stereo not given) (Boc-[Phe(4-NO2)]-Glu(OEt)-Glu(OEt)-OEt; configuration not given here)	> 100 µM			28.1 µM	> 100 µM	52.6 µM	31.8 µM		40.3 µM	31.2 µM									
CCOC(=O)CCc1cn2cc(Br)nc(OC)c2n1	> 100 µM	> 100 µM	> 100 µM	> 100 µM	> 100 µM	12.6 µM	> 100 µM	> 100 µM	> 100 µM	> 100 µM									
O=c1c2ccccc2nc(N/N=C/c2ccc([N+](=O)[O-])cc2)n1-c1ccccc1	> 100 µM	> 100 µM	> 100 µM	> 100 µM	> 100 µM	> 100 µM	> 100 µM	> 100 µM	> 100 µM	> 100 µM									
Oc1ccc(Cl)cc1-c1cc(-c2ccccc2)nc(=S)[nH]1	> 100 µM	> 100 µM	> 100 µM	> 100 µM	85.8 µM	> 100 µM	> 100 µM	> 100 µM	> 100 µM	> 100 µM									
